The subject of the test is common cocklebur (Xanthium strumarium). Description: Test Example 1: foliar treatment on upland fields. Further details: key: “0” means that there was no or little difference in the degree of germination or growth between the treated and the untreated tested plants at the time of examination; “5” means that the test plants died complete or their germination or growth was completely inhibited. It counts as in vivo. The following applies: 1 g/ha active ingredient; foliar spray on 21-day plants, 1% Agri-Dex; examined after 21 days; index 0-5. How it is done:
Foliar Treatment on Upland Fields
Plastic pots which have an area of (26.5×19)cm^2 and a depth of 7 cm were filled with upland soil, seeded with common cocklebur (Xanthium strumarium) and were given 21 days to grow in a greenhouse. Each of the test compounds was formulated into emulsifiable concentrates according to Formulation Example 2, which was diluted with a designated amount of water containing 1% Agri-Dex (adjuvant produced by Helena Chemical Company), and such was uniformly sprayed over the foliage of the test plants with a sprayer at a volume of 1000 liters per hectare. After the application, the test plants were grown in the greenhouse for 21 days, and the herbicidal activity was examined.

Take `COC(=O)[C@@H](C)Oc1cc(-n2c(=O)cc(C(F)(F)F)n(C)c2=O)c(F)cc1Cl` [Present Compound 1, methyl (2R)-2-[2-chloro-4-fluoro-5-[3-methyl-2,6-dioxo-4-(trifluoromethyl)-1,2,3,6-tetrahydropyrimidin-1-yl]phenoxy]propionate]: the “Herbicidal Activity Common Cocklebur” value worked out at 5.

For the origin of these results see patent US6391826B1, “Optically active uracil compounds” (Sumitomo Chemical Company, Limited, priority 1998, dated 2002).
